Experiment [1] deals with T1, GPR139 (Homo sapiens, UniProt Q6DWJ6).
T1 sequence (Q6DWJ6 1-353): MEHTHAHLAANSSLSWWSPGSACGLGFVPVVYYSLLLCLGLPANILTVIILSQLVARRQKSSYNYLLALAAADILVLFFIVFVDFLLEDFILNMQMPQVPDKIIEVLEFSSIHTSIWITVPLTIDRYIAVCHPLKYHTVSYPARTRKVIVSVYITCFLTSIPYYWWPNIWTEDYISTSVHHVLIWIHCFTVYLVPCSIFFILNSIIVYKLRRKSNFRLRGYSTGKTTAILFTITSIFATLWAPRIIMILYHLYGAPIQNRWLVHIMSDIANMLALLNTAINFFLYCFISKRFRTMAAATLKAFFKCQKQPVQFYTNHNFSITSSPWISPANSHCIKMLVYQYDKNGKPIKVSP
In words: Ca2+ mobilization assay, agonist mode, stable GPR139-CHOk1 cell line. Type of experiment: cell-based. As for the experimental part: Primary screening and pharmacological characterization of compounds were performed using a CHO-K1 cell line that stably expresses human GPR139 (GPR139-CHOk1). The GPR139-CHOk1 cell line was kindly provided by H. Lundbeck A/S, Denmark[24]. GPR139-CHOk1 cells were grown in Ham’s F-12 Kaighn’s Modification Medium (ThermoFisher #21127030) supplemented with 10% dialyzed fetal bovine serum (US origin, ThermoFisher #26400044), 100 units/mL Penicillin-Streptomycin (ThermoFisher #15140122), and 1 mg/mL Geneticin (ThermoFisher #11811031). […] M1R-CHOk1 cells were purchased from The Missouri S&T cDNA Resource Center (#CEM100TN00). M1R-CHOk1 cells were grown in Ham’s F12 Medium (ThermoFisher #21765029) supplemented with 10% fetal bovine serum (Brazilian origin, ThermoFisher #10270106), 100 units/mL Penicillin-Streptomycin, and 0.25 mg/mL Geneticin. HEK293A cells transiently transfected with GPR139 were used for additional pharmacological assessment of signaling pathways activated by GPR139. HEK239A cells were generously provided by Dr. Asuka Inoue, Tohoku University, Japan. HEK293A cells were grown in Dulbecco’s Modified Eagle Medium (ThermoFisher #31966047) supplemented with 10% dialyzed fetal bovine serum and 100 units/mL Penicillin-Streptomycin. Cell lines were maintained at 37 °C in humidified incubator equilibrated with 5% CO2.
(§1) 30,000 GPR139- or M1R-CHOk1 cells/well were seeded in black clear bottom tissue culture treated 96-well plates (Greiner #655090) and grown for 20–24 h. Cells were washed with HEPES buffer (Hank’s Balanced Salt Solution (HBBS) supplemented with 20 mM HEPES, 1 mM MgCl2, and 1 mM CaCl2; pH 7.4). Cells were loaded with 50 µL of 2 µM Fluo-4 AM dye (ThermoFisher #F14202) in HEPES buffer supplemented with 2.5 mM probenecid and 0.01% Pluronic F-68 (ThermoFisher #24040032) for 1 h at 37 °C. Cells were washed with HEPES buffer. 50 µL HEPES buffer supplemented with 2.5 mM probenecid was added, and the cells were incubated for 10 min at 37 °C before measurement. 50 µL test compounds diluted in HEPES buffer from DMSO stocks (final DMSO concentration of maximally 0.3%) were added automatically after baseline measurements. The intracellular calcium mobilization was measured on a FlexStation 3 Multimode Microplate Reader (Molecular Devices) at 37 °C with filters for excitation of 485 nm and emission of 525 nm.
(§2) Our primary compound screening protocol consisted of two subsequent steps that allowed to screen for agonists and antagonists simultaneously. In the first step, the screening compounds were applied at 10 µM to test for agonist activity (agonist mode). Following 20 min incubation with the compounds added in the first step, in the second step, an EC80 concentration (800 nM) of the reference agonist Lundbeck Cmp 1a was applied to test for antagonist activity (antagonist mode).
Pharmacological data and statistical analyses were performed in GraphPad Prism v9–10 (Graphpad Software Inc., San Diego, CA), which are also specifically described in the figure and table legends. The functional assay responses were normalized to buffer (0%) and Lundbeck Cmp 1a or JNJ-63533054 (100%), for Ca^2+ and IP1 experiments in the GPR139-CHOk1 stable cell line or Ca^2+, G protein activation, and arrestin-3 recruitment experiments in the HEK293A cells transiently transfected with GPR139, respectively. Data are from at least three independent experiments, unless stated otherwise. Concentration-response curves were fitted applying non-linear regression using the log (agonist) versus response model with variable slope. ANOVA was applied for comparing results and determining statistical significance.

Experiment [2] addresses T1, GPR139. Put plainly: Ca2+ mobilization assay, antagonist mode (EC80 800 nM Lundbeck Cmp 1a after 20 min preincubation), GPR139-CHOk1. Type of experiment: cell-based. As for the experimental part:
as §1
as §2, with “(antagonist mode). In the agonist mode (first step) response is seen only with compounds having agonist activity (Cmp 1a), but not with non-receptor-binding compounds (Vehicle) or antagonists (NCRW0105-E06) (Supplementary Fig. 14). […] No antagonist compounds were identified in this study.” for “(antagonist mode).”
A general note: Calcium flux is commonly read through the fluorescence of an indicator in the cells.

The mark [3] stands for this setting: Agonist mode, individual replicates (Supplementary Figure 1).
[4] abbreviates: individual replicates (Supplementary Figure 1).
Where [5] appears, read: Agonist mode, individual replicates (Supplementary Figure 4).
[6] abbreviates: individual replicates (Supplementary Figure 4).

Several values for one entry are separate records, joined by “and”; a condition that tells them apart may be missing. Equal entries are not always repeated. Where only a bound is given, the exact number is not on record here.

The source of these data is article PMC12775434, “Ultra-large virtual screening unveils potent agonists of the neuromodulatory orphan receptor GPR139” (Nature Communications, 2025).

As to `CC(O)CN(Cc1ccccc1)C(=O)NCc1ccc(Cl)o1` (centres unmarked) [Compound 19, CC(O)CN(CC=1C=CC=CC1)C(=O)NCC2=CC=C(Cl)O2], the “Ca2+ signal (% of Cmp 1a)” value is 4 % of Cmp 1a and 5 % of Cmp 1a and 6.65 % of Cmp 1a on GPR139 [1] (setting [3]); 4 % of Cmp 1a and 5 % of Cmp 1a and 6.65 % of Cmp 1a on GPR139 [1] (primary screen, 10 µM compound, agonist mode, three columns = independent experiments); 78.3598 % of Cmp 1a and 79.4126 % of Cmp 1a and 77.319 % of Cmp 1a at GPR139 [2] (setting [4]).
In the case of `CC(=O)Nc1nc(Cn2cnc3c2CC(C)C(C)C3)cs1` (centres unmarked) [Compound 47, CC1CC=2N=CN(CC3=CSC(NC(=O)C)=N3)C2CC1C], the “Ca2+ signal (% of Cmp 1a)” value at GPR139 [1] (setting [3]) was -0.697 % of Cmp 1a and 10 % of Cmp 1a and 0.881 % of Cmp 1a; on GPR139 [2] (setting [4]), 79.7228 % of Cmp 1a and 79.8068 % of Cmp 1a and 92.3954 % of Cmp 1a.
As to `Cn1nc(-c2ccc(F)cc2F)cc1NC(=O)NCc1ccccn1` [Compound 42, CN1N=C(C=C1NC(=O)NCC=2C=CC=CN2)C=3C=CC(F)=CC3F], the “Ca2+ signal (% of Cmp 1a)” value was 0.111 % of Cmp 1a and 2.67 % of Cmp 1a and 15 % of Cmp 1a on GPR139 [1] (setting [3]); 73.5301 % of Cmp 1a and 76.7288 % of Cmp 1a and 79.4888 % of Cmp 1a at GPR139 [2] (setting [4]).
For the compound `C[C@@H](NC(=O)Cn1c2c(sc1=O)CCCCC2)c1ccccc1` [Compound 55, C[C@@H](NC(=O)CN1C=2CCCCCC2SC1=O)C=3C=CC=CC3], the “Ca2+ signal (% of Cmp 1a)” value at GPR139 [1] (setting [3]) was 18 % of Cmp 1a and -2.59 % of Cmp 1a and 22 % of Cmp 1a; at GPR139 [2] (setting [4]) it was 74.6627 % of Cmp 1a and 75.4146 % of Cmp 1a and 90.0274 % of Cmp 1a.
As to `CC(NC(=O)Cc1coc(-c2cccs2)n1)c1ccccc1` (centres unmarked) [Compound 1.44, CC(NC(=O)CC1=COC(=N1)C2=CC=CS2)C=3C=CC=CC3], the “calcium mobilization response relative to Lundbeck Cmp 1a” value at GPR139 [1] (10 µM compound, agonist mode) is 43%. Further, the “Ca2+ signal (% of Cmp 1a)” value was 88 % of Cmp 1a and 15 % of Cmp 1a and 25 % of Cmp 1a on GPR139 [1] (setting [5]); -8 % of Cmp 1a and 68 % of Cmp 1a and 69 % of Cmp 1a on GPR139 [2] (setting [6]). The “fold decrease in potency on substitution of the central oxadiazole ring” value on GPR139 [1] (Ca2+ mobilization) is on record as over 50 fold. Besides, the EC50 at GPR139 [1] (GPR139-CHOk1, read-out: EC50, Ca2+ mobilization) was over 10 µM.
Turning to `CC(NC(=O)c1occc1COc1ccccc1)c1ccon1` (centres unmarked) [Compound 32, CC(NC(=O)C=1OC=CC1COC=2C=CC=CC2)C=3C=CON3], the “Ca2+ signal (% of Cmp 1a)” value was -11 % of Cmp 1a and -0.416 % of Cmp 1a and 7 % of Cmp 1a at GPR139 [1] (setting [3]); 55.4318 % of Cmp 1a and 73.597 % of Cmp 1a and 97.305 % of Cmp 1a at GPR139 [2] (setting [4]).
`O=C(Nc1ccnc(OCc2ccccc2)c1)C1Cc2ccccc21` (centres unmarked) [Compound 43, O=C(NC=1C=CN=C(OCC=2C=CC=CC2)C1)C3CC=4C=CC=CC34]: the “Ca2+ signal (% of Cmp 1a)” value at GPR139 [1] (setting [3]) is 0.84 % of Cmp 1a and 9 % of Cmp 1a and 13 % of Cmp 1a; on GPR139 [2] (setting [4]) it was 90.3553 % of Cmp 1a and 81.3074 % of Cmp 1a and 78.6074 % of Cmp 1a.
Turning to `Cc1ccc(OCC(=O)Nc2ccc3c(c2)nc(C)n3C)cc1` [Compound 21, CC1=NC=2C=C(NC(=O)COC=3C=CC(C)=CC3)C=CC2N1C], the “Ca2+ signal (% of Cmp 1a)” value is 1.09 % of Cmp 1a and -7 % of Cmp 1a and -8 % of Cmp 1a at GPR139 [1] (setting [3]); 67.0268 % of Cmp 1a and 92.847 % of Cmp 1a and 77.1923 % of Cmp 1a on GPR139 [2] (setting [4]).
Consider `COc1ccc2cc(-c3nc(CC(=O)NC(C)c4ccccc4)no3)sc2c1` (centres unmarked) [Compound 1.36, COC1=CC2=C(C=C(C3=NC(CC(NC(C4=CC=CC=C4)C)=O)=NO3)S2)C=C1], for which, at GPR139 [1] (10 µM), the “activation of GPR139 in analog screen” value was “All analogs, with the exception of compound 1.36, activated GPR139”. In addition, the “Ca2+ signal (% of Cmp 1a)” value was 0 % of Cmp 1a and -15 % of Cmp 1a and -10 % of Cmp 1a on GPR139 [1] (setting [5]); 52 % of Cmp 1a and 69 % of Cmp 1a and 54 % of Cmp 1a at GPR139 [2] (setting [6]). Further, the “change in potency with larger substituents on the thiophene ring” value on GPR139 [1] (Ca2+ mobilization) is on record as “three-fold reduction to a complete loss of activity”.
Take `Cc1nnnn1C(=Cc1ccccc1)C(=O)N[C@@H](C)c1ccccc1` [Compound 17, C[C@H](NC(=O)C(=CC=1C=CC=CC1)N2N=NN=C2C)C=3C=CC=CC3]: the “Ca2+ signal (% of Cmp 1a)” value at GPR139 [1] (setting [3]) was 4.36 % of Cmp 1a and -2.84 % of Cmp 1a and 2.54 % of Cmp 1a; at GPR139 [2] (setting [4]), 61.7351 % of Cmp 1a and 85.7644 % of Cmp 1a and 78.6356 % of Cmp 1a.

A word on the EC50: it is the concentration at which the effect is half-maximal.
